According to patent US12347214B2, “Microspore culture predictive model generation and use” (PIONEER HI-BRED INTERNATIONAL, INC., priority 2019, dated 2025):

Experiments:
[1] = system: AtWOX2pro::CENH3-GFP activity in transgenic canola microspores; assay: AtWOX2pro::CENH3-GFP reporter activity in canola microspore culture with inducing agent; assay type: cell-based; details: with trichostatin A treatment
Source text: The methods described above for corn may also be adapted for use with other crops and for use with a reporter gene. As proof of concept, Canola microspore cells were obtained from a plant line that had been transformed with a green fluorescent protein reporter gene fused to a plant developmental gene with an effect on plant histones. While transformation was used in this case, other known gene insertion techniques such as CRISPR may be used to insert the reporter gene into the plant genome. A stable homozygous Canola line with the AtWOX2pro::CENH3-GFP fusion protein was developed. This protein attaches to plant histones, associates with plant chromocenters and can be used to determine chromosome number. GFP served as the reporter gene, although any reporter gene could also be used. This stable transgenic line was used to generate a microspore for in vitro tissue culture. Trichostatin A, a histone deacetylase inhibitor known to alter the embryogenic potential of dicot microspores was used as the inducing agent.

[2] = Dye stability in cell culture conditions; assay type: physicochemical; details: supplementation at beginning of culture sufficient until end point of analysis
Source text: (§1) In the embodiment described herein, the fluorescent dye BODIPY 564/70, which stains both cell membranes and subcellular compartments, such as vacuoles, was used. […] BODIPY 564/70 is non-toxic to plant cells, so the plant cells continued to develop. BODIPY 564/70 is also very stable in cell culture conditions, so supplementation of the dye at the beginning of the culture was sufficient to generate informative images until the end point of the analysis. Other dyes, combinations of dyes, such as CFDA and FM4-64, and combinations of dyes with fluorescent protein markers, may also be used with the present method in order to generate different images. Options for fluorescent imaging include imaging cells that comprise fluorescent proteins, such as green (GFP), blue (EBFP, EBFP2, Azurite, mKalama1), cyan (ECFP, Cerulean, CyPet, mTurquoise2), red (dsRed, mCherry, tomato, etc.), far-red (mIFP, iBlueberry etc.) and yellow (YFP, Citrine, Venus, YPet). Plant cell stain techniques are known in the art, for example, see Ruzin, S. E. Plant Microtechnique and Microscopy. New York: Oxford University Press. ISBN 0195089561 (1999).

plant cells = assay: Staining of plant cells with fluorescent dye, continued cell development; assay type: cell-based; details: dye added at the beginning of the culture; plant cells continued to develop
Source text: as §1

stability in cell culture conditions [2]	Compound	detection of AtWOX2pro::CENH3-GFP activity ([1]; first timepoint)	detection of AtWOX2pro::CENH3-GFP activity ([1]; second time point)	toxicity to plant cells (plant cells)
	CC(/C=C/C(=O)NO)=C\[C@@H](C)C(=O)c1ccc(N(C)C)cc1 [trichostatin A, Trichostatin A]	no or very low detection	increased detection	
very stable	BODIPY 564/70			non-toxic
